Source: patent EP3431088A1, “MNTBAP FOR USE IN INDUCING A TRANSIENT IMMUNE TOLERANCE” (priority 2017, dated 2019)

Columns and labels:
[1] = test system: CD4; assay: CD4 cell surface expression by flow cytometry; format: cell-based, murine
Experimental: (§1) MnTBAP (Calbiochem, San Diego, USA or Enzo Life Sciences, Farmingdale, USA) is dissolved in 75 mM NaOH to constitute a 20 mM stock solution. MnTBAP is dissolved in the complete medium, used for in vitro treatment, containing RPMI-1640 supplemented with 10% heat-inactivated fetal calf serum, 100 U/ml penicillin/streptomycin, 2 mM glutamax and 50 µM β-mercaptoethanol β-ME). Hypertonic medium, used to block clathrin dependent endocytosis, is complete medium supplemented with 0.45 M sucrose. For in vivo treatment, the stock solution is diluted with PBS and administered at 80 mg/kg intraperitoneally daily during five days. Control animals are injected with equivalent volume of PBS.
After mechanic disruption of the spleen, erythrocytes are eliminated by hypotonic shock with ammonium chloride potassium (ACK) lysing buffer. Then CD4^+ T cells are isolated from spleen cell suspension by negative selection using a CD4^+ T cell isolation kit (Miltenyi Biotec, Paris, France) followed by auto-MACS (Miltenyi Biotec) magnetic sorting, according to the manufacturer's instructions. Purity of isolated CD4^+ T cells is usually > 95%. Cell suspensions are first incubated with anti-FcγRIII/II (Fc Block, 2.4G2, BD Biosciences, Le Pont de Claix, France) monoclonal antibodies (mAb) for 10 minutes at 4°C and then stained for 30 minutes at 4°C in PBS, 0.1% bovine serum albumin (BSA) with Fc Block present, using saturating amounts of rat anti-mouse CD4-Pacific Blue (RM4-5, BD Biosciences) mAb. Gates for CD4^+ populations are set according to isotype controls. Cell viability is determined by staining with 7-aminoactinomycin D (7-AAD; Sigma-Aldrich, St-Quentin-Fallavier, France) or Fixable Viability Dye eFluor 780 (eBiosciences, Paris, France). When indicated, samples are fixed with 1% paraformaldehyde. Samples are acquired on an LSR II flow cytometer (BD Biosciences) and data were analyzed with DIVA software (BD Biosciences).

[2] = test system: clathrin and CD4; assay: Immunofluorescence confocal microscopy, anti-CD4 and anti-clathrin; format: cell-based; settings: murine splenic enriched CD4+ T cells, 2 hours, 400 µM, vs non-treated
Experimental: After culture in complete medium with or without MnTBAP at 400 µM, murine splenic CD4^+ T cells are collected and subjected to immunostaining as previously described (T. M. Neildez-Nguyen et al., Immunology 144, 431. 2015). Briefly, after adhesion on poly-L-lysine-coated slides (Thermo Fisher Scientific), cells are fixed in 4% paraformaldehyde for 5 minutes at 4°C and for 10 minutes at room temperature, and permeabilized with methanol for 6 minutes at -20°C. Cells are stained overnight with rat anti-mouse CD4-APC (BD Biosciences) and rabbit anti-mouse clathrin (Abcam, Paris, France) antibodies, and then with the goat anti-rabbit Alexa Fluor 488 secondary antibody (Invitrogen, Carlsbad, USA) for 30 minutes at room temperature. Negative controls are performed with the corresponding isotype controls of primary antibodies used (BD Biosciences and Abcam). The slides are mounted with Fluoromount/Dapi (SouthernBiotech, Montrouge, France). Images are acquired with confocal-laser-scanning microscope (Leica Microsystems, Nanterre, France).

[3] = test system: specific T-cell immune responses against OVA peptides; assay: OVA peptides subcutaneous immunization, IFN-γ ELISPOT on spleen cells; format: in vivo, C57BL/6 mice; settings: 80 mg/kg IP daily 5 days, vs PBS + OVA / IFA
Experimental: as §1
A mixture of chicken egg albumin (OVA) peptides is administrated subcutaneously in mice anesthetized by intraperitoneal injection of xylazine (10 mg/kg) and ketamine (100 mg/kg). OVA257-264 (SEQ ID NO: 3; SIINFEKL) (InvivoGen, San Diego, USA) is a class I (Kb)-restricted peptide epitope of OVA presented by the class I major histocompatibility complex molecule (CMH) H-2Kb. OVA323-339 (SEQ ID NO: 4; ISQAVHAAHAEINEAGR) (AnaSpec, San Jose, USA) is an H-2b-restricted OVA class II epitope. 100 µg of each peptide complexed with the same volume of incomplete Freund's adjuvant (IFA) (Sigma-Aldrich) are administrated. Controls are injected with PBS-IFA complexes. OVA peptides- and PBS-IFA complexes are injected two hours or 21 days post first intraperitoneal injection of MnTBAP (or PBS). Eight days post OVA peptides injection, mice are sacrificed and spleens harvested to analyze OVA-specific T cell response.
Spleens are harvested to analyze the cellular immune anti-transgene response by T-cell cytokine response assay. Multiscreen-HA Assay System 96-well Filtration plates (Merck) are coated overnight with 2.5 µg/ml of anti-mouse IFN-γ purified mAb (eBiosciences) at 4°C, washed, and then blocked with RPMI 1640 medium (Life Technologies, Saint-Aubin, France) supplemented with 10% heat inactivated fetal bovine serum (FCS), 100U/ml penicillin/streptomycin (Thermo Fisher Scientific) and 2mM GlutaMAXTM-I (Life technologies) for 2 hours at 37°C. Plates are washed three times with RPMI 1640 medium without FCS. Splenocytes are added in duplicate to the IFN-γ-coated well (1 or 0.5 x 10^6 cells/well) and cultured in presence of Dby or Uty peptide (Genepep, Montpellier, France) at 2 µM or in presence of OVA peptides at 10 µg/ml. As a positive control, cells are stimulated with Concanavalin A (Sigma-Aldrich) at 1 µg/ml in each test. […] Spots are counted using an AID reader (Ceipheid Benelux, Louven, Belgium). Spot forming units (SFU) per million cells for each mouse are calculated as the average value of duplicate measures after subtraction of background values obtained with in vitro unstimulated splenocytes.

[4] = OVA/IFA immunization 21 days after first injection
[5] = OVA/IFA immunization two hours after first injection

O=C(O)c1ccc(-c2c3nc(c(-c4ccc(C(=O)O)cc4)c4ccc([n-]4)c(-c4ccc(C(=O)O)cc4)c4nc(c(-c5ccc(C(=O)O)cc5)c5ccc2[n-]5)C=C4)C=C3)cc1.[Mn+3] [MnTBAP, manganese [III] tetrakis (4-benzoic acid) porphyrin]
CD4 expression (CD4 GMFI) ([1]; 2 hours after washing out MnTBAP ("2 h removed")): the decrease of CD4 expression is less important | CD4 expression (CD4 GMFI) ([1]; fixed cells, 400 µM, 2 hours ("treated") vs "none"): decrease of CD4 expression | CD4 expression ([1]; hypertonic conditions (RPMI + 0.45 M sucrose), 400 µM, 2 hours, treated vs non-treated): no significant difference of CD4 expression | percentage of CD4 expression ([1]; normal tonicity (RPMI), 400 µM, 2 hours, vs non-treated): decreased | CD4 expression (CD4 GMFI) ([1]; overnight after removing MnTBAP ("O/N removed")): further less accentuated | CD4 at the cell surface of CD4 expressing cells ([1]; splenic enriched CD4+ T cells, 400 µM, 2 hours, vs control): disappearance of CD4 at the cell surface | CD4 expression ([1]; viable murine splenic enriched CD4+ T cells, 2 hours, 400 µM): maximal decrease of CD4 expression | CD4 expression ([1]; viable murine splenic enriched CD4+ T cells, 2 hours, increasing doses 0, 100, 200, 400 µM): progressive decrease of CD4 expression | colocalization of clathrin and CD4 [2]: colocalization of clathrin and CD4 is observed | IFN-γ production by OVA-specific CD4^+ T cells [3, 4]: produce low levels of IFN-γ with no significant differences | IFN-γ production by OVA-specific CD8^+ T cells [3, 4]: produce IFN-γ with no significant differences | IFN-γ production by OVA-specific CD4^+ T cells [3, 5]: not able to produce IFN-γ | IFN-γ production by OVA-specific CD8^+ T cells [3, 5]: not able to produce IFN-γ
